Assay [1] relates to HIV-1 (IIIB). Kind of assay: microbe, parasite or virus in culture. Conditions: Human immunodeficiency virus 1, IIIB, CCRF-CEM; concentration required to inhibit HIV-induced cytopathicity in human CEM cell cultures by 50%. It is filed as cell-based. (Cytopathic effects are the visible damage that an infection or toxin causes in cultured cells.)
In assay [2] the test system is HIV-2 (ROD). As to the kind of experiment: Anti-viral activity: HIV-2-induced cytopathicity in human CEM cell cultures. It is filed as cell-based. The following applies: Human immunodeficiency virus 2, CCRF-CEM; concentration required to inhibit HIV-induced cytopathicity in human CEM cell cultures by 50%.
The test system of assay [3] is HSV-1 (KOS). Kind of assay: Anti-viral activity: HSV-1-induced cytopathicity in human embryo fibroblast E6SM cell cultures. Format: cell-based, herpes simplex virus (HSV). Conditions: Human alphaherpesvirus 1, 50%.
Assay [4] concerns VV. Kind of assay: microbe, parasite or virus in culture. Format: cell-based. Conditions: Orthopoxvirus vaccinia, E6SM, read-out: EC50 VV (E6SM).
Assay [5] relates to VZV OKA. As to the kind of experiment: microbe, parasite or virus in culture. Format: cell-based, varicella zoster virus (VZV). The following applies: for EC50: Human alphaherpesvirus 3, HEL, read-out: EC50 VZV (HEL) OKA.
Assay [6] deals with VZV YS. As to the kind of experiment: Anti-viral activity: VZV-induced plaque formation in HEL cell cultures, YS strain. It is filed as cell-based, varicella zoster virus (VZV). Conditions: Human alphaherpesvirus 3, VZV-induced plaque formation in human embryonic lung HEL cell cultures, 50%.
The test system of assay [7] is murine leukemia cells (L1210/0). As to the kind of experiment: Cytostatic activity: inhibition of proliferation of L1210/0 cells. It is filed as cell-based. Conditions: Mus musculus. The method, then: (§1) The compounds were tested for anti-tumor activity via the inhibitory effects on the proliferation of murine leukemia cells (L1210/0), murine mammary carcinoma cells (FM3A), human T-lymphocyte cells (Molt4/C8, CEM/0) and human cervix carcinoma cells (HeLa).

In assay [8] the test system is murine mammary carcinoma cells (FM3A). Kind of assay: Cytostatic activity: inhibition of proliferation of FM3A cells. It is filed as cell-based. The following applies: Mus musculus, read-out: IC50 FM3A/0. The method, then: as §1
Assay [9] has as its system human T-lymphocyte cells (Molt4/C8). As to the kind of experiment: Cytostatic activity: inhibition of proliferation of Molt4/C8 cells. Format: cell-based. The method, then:
as §1

The subject of assay [10] is human cervix carcinoma cells (HeLa). As to the kind of experiment: Cytostatic activity: inhibition of proliferation of HeLa cells. Format: cell-based. Conditions: 50% inhibitory concentration, cell proliferation. The method, then:
as §1

For assay [11], the system named is E. faecalis ATTC29212 LMG 8222. Kind of assay: Anti-bacterial activity, Bioscreen C growth curve: E. faecalis. It is filed as cell-based. The following applies: Enterococcus faecalis, LMG8222, 35° C., 16 hours, negative control = 100, read-out: % of growth at 25 PPM compared to the negative control, E. faecalis ATTC29212 LMG 8222. The method, then: (§2) For the determination of the anti-bacterial and anti-fungal activity the Bioscreen C Analyser Labsystems, Finland, was used. This is an automated reader-incubator. It measures growth continuously by vertical photometry (optical density), processes the data and provides a print out of the results. The area under the growth curve is automatically determined via the Biolink software.
(§3) The inoculum size of the bacteria is standardized to approximately 5×10^5 CFU/ml.
(§4) For bacteria, the 100-honey-well plates containing test chemical, Mueller-Hinton broth and inoculum (=sample) are incubated at 35° C. for 16 hours. Also wells without inoculum are incubated (=blanco). Yeasts are incubated 35° C. for 24 hours in RPMI 1640+MOPS buffer at 165 mM. Moulds also in RPMI 1640+MOPS buffer at 165 mM are incubated 25° C. for 5 days. All micro-organisms are screened against a known concentration of the reference antibiotics or antimycotics such as vancomycin, penicillin G, gentamicin or amphotericin B. The growth curve and the area under the growth curve can be determined using the Biolink software; this is illustrated in FIG. 1.
(§5) The area of the blanco is subtracted from the area of the sample, this number (delta) gives us an indication of the biological activity of the molecules tested and can be expressed as a % of growth at a specific dose compared to a negative control that has a value of 100, illustrated in FIG. 2. Screening of each dose of a specific compound is repeated 5 times. The dose used for all new molecules in all tests is 25 PPM or 25 μg/ml.
(§6) In Table 4 the results of the anti-bacterial activity is given for the new molecules. The micro-organisms used are Staphylococcus aureus, MRSA, VRE, Enterococcus faecalis, Salmonella typhimurium and Pseudomonas aeruginosa.

The test system of assay [12] is VRE ATCC700221. As to the kind of experiment: Anti-bacterial activity, Bioscreen C growth curve: VRE. It is filed as cell-based, vancomycin-resistant Enterococcus (VRE). The following applies: Enterococcus, 35° C., 16 hours, negative control = 100, read-out: % of growth at 25 PPM compared to the negative control, VRE ATCC700221. On the procedure: as §2, §3, §4, §5, §6

The test system of assay [13] is S. aureus ATTC29213 LMG10147. Kind of assay: Anti-bacterial activity, Bioscreen C growth curve: S. aureus. Conditions: Staphylococcus aureus, 35° C., 16 hours, negative control = 100, read-out: % of growth at 25 PPM compared to the negative control, S. aureus ATTC29213 LMG10147. It is filed as cell-based. The method, then: as §2, §3, §4, §5, §6
The test system of assay [14] is MRSA ATCC33591. As to the kind of experiment: Anti-bacterial activity, Bioscreen C growth curve: MRSA. It is filed as cell-based, methicillin-resistant Staphylococcus aureus (MRSA). The following applies: Staphylococcus aureus, ATCC 33591 / LMG10147 / MRSA; 25 PPM; 35° C., 16 hours; negative control = 100; read-out: % of growth at 25 PPM compared to the negative control, MRSA ATCC33591 LMG10147. On the procedure:
as §2, §3, §4, §5, §6

Assay [15] relates to P. aeruginosa ATCC27853 LMG16217. Kind of assay: Anti-bacterial activity, Bioscreen C growth curve: P. aeruginosa. Format: cell-based, Pseudomonas aeruginosa. Conditions: for activity at 25 ppm: Pseudomonas aeruginosa, 35° C., 16 hours, negative control = 100, read-out: % of growth at 25 PPM compared to the negative control, P. aeruginosa ATCC27853 LMG16217. The method, then: as §2, §3, §4, §5, §6

Where [16] appears, read: L1210/0, 50% inhibitory concentration, cell proliferation, read-out: IC50 L1210/0.
Setting [17] is: 50% inhibitory concentration, cell proliferation.
The mark [18] stands for this setting: Molt4/C8, 50% inhibitory concentration, cell proliferation, read-out: IC50 Molt4/C8.

Molecules are shown by their SMILES. In brackets after ≈: the same amount, converted by molar mass. Read-outs that look alike come from different tables or passages of the source.

The term EC50 denotes the concentration giving half of the maximal effect.

In the case of `CO[C@@H]1[C@@H](OC)[C@H](c2ccccc2)O[C@@H]2CO[C@@H](c3ccccc3)O[C@@H]12` [KPE00001015], the EC50 was more than 4 µg/mL in assay [1]; more than 4 µg/mL in assay [2]; more than 80 µg/mL in [3]; more than 80 µg/mL in assay [4]; 13 µg/mL (≈ 36.5 µM) in [5]; 14 µg/mL (≈ 39.3 µM) in assay [6]. The IC50 in [7] (setting [16]) was not below 200 µg/mL; in [8] (setting [17]), more than 200 µg/mL; in assay [9] (setting [18]) it was 62 ± 3 µg/mL (≈ 174 µM); in assay [10], 104 ± 65 µg/mL (≈ 292 µM). The activity at 25 ppm was 86% in assay [11]; 67.8% in [12]; 104% in [13]; 117% in assay [14]; 90.4% in assay [15].

Consider `CO[C@@H]1[C@@H](OC)[C@H](Sc2ccccc2)O[C@@H]2COC(=O)CCCC/C=C/CCCCC(=O)O[C@@H]12` [KPE00001016.1], for which the EC50 is more than 4 µg/mL in assay [1]; more than 4 µg/mL in assay [2]; more than 3.2 µg/mL in [3]; more than 3.2 µg/mL in assay [4]; 5 µg/mL (≈ 10.1 µM) in assay [5]; 22 µg/mL (≈ 44.7 µM) in assay [6]. Also, in [5] (strain not named), the “anti-viral activity against VZV, in words” value is on record as “especially active”. For the same molecule, the IC50 in assay [7] (setting [16]) stood at 20 ± 7 µg/mL (≈ 40.6 µM); in [8] (setting [17]) it was 108 ± 9 µg/mL (≈ 219 µM); in assay [9] (setting [18]) it was 39 ± 1 µg/mL (≈ 79.2 µM); in assay [10], 19 ± 5 µg/mL (≈ 38.6 µM). For the same molecule, the activity at 25 ppm came out at 76.5% in assay [11]; 61.8% in assay [12]; 103% in assay [13]; 115% in [14]; 29% in assay [15]. Moreover, the “anti-bacterial activity against P. aeruginosa, in words” value in assay [15] (conclusion on Table 4) was “good anti-bacterial activity”.

For the molecule `CO[C@@H]1[C@@H](OC)[C@H](Sc2ccccc2)O[C@@H]2COC(=O)CCCC/C=C\CCCCC(=O)O[C@@H]12` [KPE00001016.2], the concentration giving a half-maximal response (EC50) in assay [1] is more than 100 µg/mL; in assay [2], more than 100 µg/mL; in [3] it was more than 3.2 µg/mL; in assay [4], more than 3.2 µg/mL; in assay [5] it was more than 50 µg/mL; in assay [6] it was more than 50 µg/mL. For the same molecule, the IC50 in assay [7] (setting [16]) is 158 ± 10 µg/mL (≈ 321 µM); in assay [8] (setting [17]), more than 200 µg/mL; in [9] (setting [18]) it was 78 ± 53 µg/mL (≈ 158 µM); in assay [10], 169 ± 44 µg/mL (≈ 343 µM). Further, the activity at 25 ppm is 98.4% in [11]; 81% in assay [12]; 97% in assay [13]; 104% in [14]; 79.8% in assay [15].

Regarding `CO[C@@H]1[C@@H](OC)[C@H](Cc2ccccc2)O[C@@H]2CO[C@@H](c3ccccc3)O[C@@H]12` [KPE00001019], the EC50 in [1] is more than 100 µg/mL; in assay [2] it was more than 100 µg/mL; in assay [3], more than 80 µg/mL; in assay [4], more than 80 µg/mL; in assay [5], more than 5 µg/mL; in assay [6] it was more than 5 µg/mL. Besides, the IC50 in [7] (setting [16]) was more than 200 µg/mL; in assay [8] (setting [17]), more than 200 µg/mL; in [9] (setting [18]), not below 200 µg/mL; in [10], more than 200 µg/mL. In addition, the activity at 25 ppm is 104% in assay [11]; 97% in [12]; 109% in assay [13]; 104% in [14]; 105% in assay [15].

On to `CO[C@@H]1[C@@H](OC)[C@H](Cc2ccccc2)O[C@@H]2COC(=O)CC/C=C/CCC(=O)O[C@@H]12` [KPE00001022], for which the EC50 is more than 20 µg/mL in [1]; more than 20 µg/mL in assay [2]; more than 80 µg/mL in [3]; 80 µg/mL (≈ 191 µM) in [4]; more than 20 µg/mL in assay [5]; more than 20 µg/mL in assay [6]. Besides, the IC50 in assay [7] (L1210/0, read-out: IC50 L1210/0) is 80 µg/mL (≈ 191 µM); in assay [8] it was 82 ± 14 µg/mL (≈ 196 µM); in [9] (Molt4/C8, read-out: IC50 Molt4/C8), 69 ± 6 µg/mL (≈ 165 µM); in [10], approximately 167 µg/mL (≈ 399 µM). In addition, the activity at 25 ppm was 96.1% in assay [11]; 87% in assay [12]; 102% in assay [13]; 110% in [14]; 90.9% in [15].

Turning to `CO[C@@H]1[C@@H](OC)[C@H](Cc2ccccc2)O[C@@H]2COC(=O)CCCCCCCCC=CCCCCCCCCC(=O)O[C@@H]12` [KPE00001031E], the EC50 was more than 100 µg/mL in [1]; more than 20 µg/mL in [2]; not below 400 µg/mL in assay [3]; more than 400 µg/mL in assay [4]; more than 5 µg/mL in assay [5]; 15 µg/mL (≈ 25.6 µM) in assay [6]. The IC50 was more than 200 µg/mL in assay [7] (setting [16]), not below 200 µg/mL in [8] (setting [17]), not below 200 µg/mL in assay [9] (setting [18]) and more than 200 µg/mL in [10]. For the same molecule, the activity at 25 ppm is 85.5% in [11]; 85.4% in [12]; 100% in assay [13]; 104% in [14]; 89.6% in [15].
